Measured values: ChEMBL document CHEMBL1121838, “Synthesis and anticholinergic properties of the enantiomers of 4-(isopropylamino)-2-(2-pyridyl)-2-phenylbutyramide, the mono-N-dealkylated metabolite of disopyramide” (J Med Chem, 1981)

Columns and labels:
[1] = organism: Cavia porcellus; assay: Inhibitory concentration of guinea pig ileum longitudinal muscle produced in response to electrically simulated release of acetylcholine; assay type: functional, Muscle tissue
[2] = organism: Cavia porcellus; assay: Mean dissociation constant was measured for acetylcholine-induced contractions; assay type: functional
[3] = organism: Cavia porcellus; assay: Inhibitory concentration of guinea pig ileum longitudinal muscle strips to antagonize electrically stimulated contractions; assay type: functional; conditions: Muscle tissue

| Compound | IC50 [1] [µM] | IC50 ([1]; Cavia porcellus, Muscle tissue) [µM] | Kd [2] [µM] | IC50 [3] [µM] |
| --- | --- | --- | --- | --- |
| CC(C)NCC[C@@](C(N)=O)(c1ccccc1)c1ccccn1 (stereo in doubt; 2 (2R)) | 14 |  |  |  |
| CC(C)NCC[C@@](C(N)=O)(c1ccccc1)c1ccccn1 (stereo in doubt; 2 (2S)) | 5 |  |  |  |
| CC(C)N(CC[C@](C(N)=O)(c1ccccc1)c1ccccn1)C(C)C [(S)-DISOPYRAMIDE] |  | 4.5 |  |  |
| CC(C)N(CCC(C(N)=O)(c1ccccc1)c1ccccn1)C(C)C (configuration not stated) [DISOPYRAMIDE] |  |  | 2.2 | 1.5 |
| CC(C)NCCC(C(N)=O)(c1ccccc1)c1ccccn1 (configuration not stated) [N-MONODEISOPROPYL DISOPYRAMIDE] |  |  | 3.8 | 3.2 |
